This is an account of results in US8084630B2, “Process for the synthesis of ramelteon and its intermediates” (Teva Pharmaceutical Industries Ltd., priority 2007, dated 2011).

Structures are written as SMILES. Values joined by “and” are separate entries in the source; they are usually repeats but may differ in a detail not shown here. Equal values may be shown once. Read-outs that look alike come from different tables or passages of the source.

One series addresses melatonin MT1 receptor (Homo sapiens, UniProt P48039). The note with it: cited from earlier work.
The next series has as its target T1, melatonin MT2 receptor (Homo sapiens, UniProt P49286).
T1 sequence (P49286 1-362): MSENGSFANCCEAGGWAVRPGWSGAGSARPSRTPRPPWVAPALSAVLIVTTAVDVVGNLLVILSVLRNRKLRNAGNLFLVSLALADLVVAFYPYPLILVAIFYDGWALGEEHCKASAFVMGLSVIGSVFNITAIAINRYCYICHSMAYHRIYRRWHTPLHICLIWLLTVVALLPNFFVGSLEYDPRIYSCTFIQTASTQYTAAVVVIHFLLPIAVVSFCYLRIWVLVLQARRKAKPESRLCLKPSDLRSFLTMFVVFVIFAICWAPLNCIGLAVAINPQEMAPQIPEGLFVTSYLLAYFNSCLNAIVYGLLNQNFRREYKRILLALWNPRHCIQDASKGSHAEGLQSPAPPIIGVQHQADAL
The conditions noted are these: cited from earlier work.

The target in the next series is T2, MT3 receptor (Homo sapiens, UniProt P16083).
T2 sequence (P16083 1-231): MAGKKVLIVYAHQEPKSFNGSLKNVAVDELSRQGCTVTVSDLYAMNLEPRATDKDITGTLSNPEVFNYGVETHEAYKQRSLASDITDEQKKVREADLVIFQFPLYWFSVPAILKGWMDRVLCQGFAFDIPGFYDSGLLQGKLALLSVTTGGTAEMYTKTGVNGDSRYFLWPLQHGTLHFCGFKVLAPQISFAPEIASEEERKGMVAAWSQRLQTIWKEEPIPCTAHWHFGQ
The note with it: cited from earlier work.

The conditions of series [1]: cited from earlier work.
A short description of series [2]: Electrostatic charge measurement (shaking can, Faraday cup). The conditions noted are these: for Average Charge Density of Batch: 3 samples; for Calculated Charge Density: shaken 90 seconds. It counts as physicochemical. The text has this:
Electrostatic Charge Measurement
Equipment and Accessories
Electrical Shaker—Scientific Industries type Vortex-2 Genie (including specific holder for the shaking cans).
Electrostatic Charge Meter—Monroe Electronics type Nanocoulomb Meter 253 (Faraday Cup).
Metal shaking can, S.S. 316, 30×50_mm.
Plastic shaking can, Perspex, 30×50_mm.
Description of Test Procedure
Calibration of the Electrostatic Charge Meter, prior the test according to manufacturer's procedure.
6 sample cans were used for each batch.
The shaking can placed in flat dish, the sample cam was opened and the powder was manually poured into the shaking can.
The shaking can was hermetically closed by plastic cover and mounted in the holder.
The electrical shaker was operated for 90 seconds, at maximum rate.
Subsequent of the shaking period the shaking can was moved into the flat dish, the cover was removed and the powder was manually poured into a glass can within the Faraday-Cup. Some of the powder was transferred by gravitational pouring (90-99%), the rest was transferred by manually push using wooden spatula (with strict adherence to tender motion).
The Faraday-Cup was closed and the charge reading (in meter display) was recorded. The described test stages were equally conducted on the selected 6 samples of each batch, as follow: 3 powder samples were shaken in metal can, 3 powder samples were shaken in plastic can. All the samples were shaken in each can for the same time period of 90 seconds.

Series [3] is described as follows: Flowability, FT4 Powder Rheometer (REP+VFR). It counts as physicochemical. The note with it: 25 mm blade, 25 ml vessel; for BFE (Basic Flow Energy = Energy Test 7): tipspeed 100 mm/s. How it is done:
Instrument: FT4 Powder Rheometer (Freeman Technology Ltd).
Methodology: The blade was rotated and simultaneously moved axially into a powder sample whist axial force and rotational forces are measured.
The 25 mm blade and a 25 ml split borosilicate test vessel were used.
The Stability and Variable Flow Rate programs were run together by combining the two methods into one program (REP+VFR). The REP+VFR study is a combination of the seven conditioning and test cycles (blade tipspeed is 100 mm/s) at constant speed and the four conditioning and test cycles (blade tipspeed is 100, 70, 40 and 10 mm/s, respectively) with decreasing in blade speed. Definitions of the Flow Parameters:
Basic Flow Energy (BFE)=Energy Test 7, mJ
Stability index (SI)=Energy test 7/Energy Test 1

melatonin MT1 receptor, sequence (P48039 whole entry): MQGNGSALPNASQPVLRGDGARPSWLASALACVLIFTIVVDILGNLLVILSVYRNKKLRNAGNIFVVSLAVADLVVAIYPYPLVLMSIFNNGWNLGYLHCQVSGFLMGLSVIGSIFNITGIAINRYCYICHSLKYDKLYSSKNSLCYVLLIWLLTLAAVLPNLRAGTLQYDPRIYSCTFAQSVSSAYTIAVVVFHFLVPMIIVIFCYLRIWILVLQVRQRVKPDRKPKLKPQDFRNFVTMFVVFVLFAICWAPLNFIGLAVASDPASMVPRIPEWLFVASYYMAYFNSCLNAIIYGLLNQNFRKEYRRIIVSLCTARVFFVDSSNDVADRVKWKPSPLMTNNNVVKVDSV

For `CCC(=O)NCC[C@@H]1CCc2ccc3c(c21)CCO3` [Ramelteon, (S)—N-[2-(1,6,7,8-tetrahydro-2H-indeno-[5,4-b]furan-8-yl)ethyl]propionamide], the “affinity for melatonin MT1 receptor” value at melatonin MT1 receptor was “high affinity”. At melatonin MT2 receptor, the “affinity for melatonin MT2 receptor” value was “high affinity”. Moreover, the “selectivity over the MT3 receptor” value on MT3 receptor was “selectivity over the MT3 receptor”. The solubility result in series [1] (1-octanol) is on record as “freely soluble”; in series [1] (DMSO) it was “freely soluble”; in series [1] (aqueous buffer), “highly soluble”; in series [1] (ethanol) it was “freely soluble”; in series [1] (methanol), “freely soluble”; in series [1] (water) it was “highly soluble”.

Turning to `CCC(=O)NCC[C@@H]1CCc2ccc3c(c21)CCO3` [Toluene, ramelteon], in series [2] (metal can), the “Average Charge Density of Batch” value is recorded as 0.82 nC/gr. For the same compound, in series [2] (plastic can), the “Average Charge Density of Batch” value is listed as 0.72 nC/gr; the “Calculated Charge Density” value was 0.85 nC/gr and 0.6 nC/gr and 0.7 nC/gr. Moreover, in series [3] (listed as Sample from Toluene), the “BFE (Basic Flow Energy = Energy Test 7)” value was 92.5 mJ and the “SI (Stability index = Energy test 7/Energy Test 1)” value is 1.02.

As for `CCC(=O)NCC[C@@H]1CCc2ccc3c(c21)CCO3` [Ethyl Acetate, ramelteon], in series [2] (metal can), the “average charge density relative to sample obtained from Toluene” value is listed as “about 12 times”; the “Average Charge Density of Batch” value came to 9.63 nC/gr; the “Calculated Charge Density” value was 8.8 nC/gr and 10.1 nC/gr and 10.0 nC/gr. Further, in series [2] (plastic can), the “average charge density relative to sample obtained from Toluene” value is “about 15 times”; the “Average Charge Density of Batch” value is on record as 10.82 nC/gr; the “Calculated Charge Density” value was 10.1 nC/gr and 14.05 nC/gr and 8.3 nC/gr. For the same compound, the “SI (Stability index = Energy test 7/Energy Test 1)” value in series [3] is listed as 0.622. Besides, in series [3] (listed as Sample from Ethylacetate), the “BFE (Basic Flow Energy = Energy Test 7)” value was determined as 181 mJ.
